# Where two headings read alike, the source gives them in different places.
# Test system: late blight phenylamide-resistant strain (zoospore+zoosporangia)
# Format: in vivo, tomatoes (cultivar: sekai-ichi)
# Details: single active ingredient
# [1] = Table 3, treated concentration 10 ppm, examined after 5 days
# [2] = Table 3, treated concentration 5 ppm, examined after 5 days
compound,measurement,setting,value
"C[C@@]1(c2ccc(Oc3ccccc3)cc2)OC(=O)N(Nc2ccccc2)C1=O (racemic) [Famoxadone, famoxadone]",Control Value,"Table 3, treated concentration 20 ppm, examined after 5 days",62
"CC(C)CC(C)c1sccc1NC(=O)c1cn(C)nc1C(F)(F)F (racemic) [P (penthiopyrad), (RS)—N-[2-(1,3-dimethylbutyl)thiophen-3-yl]-1-methyl-3-tri fluoromethyl-1H-pyrazole-4-carboxamide]",Control Value,[1],20
same,Control Value,"Table 9 (Example B), treated concentration 10 ppm",20
"CC(C)OC(=O)N[C@H](C(=O)N[C@H](C)c1nc2ccc(F)cc2s1)C(C)C [Benthiavalicarb-isopropyl, benthiavalicarb-isopropyl]",Control Value,[2],70
"Cc1ccc(-c2c(Cl)nc(C#N)n2S(=O)(=O)N(C)C)cc1 [Cyazofamid, cyazofamid]",Control Value,[1],70
"CCNc1nc(CC)c(C(=O)NC(C#N)c2cccs2)s1 (centres unmarked) [Ethaboxam, ethaboxam]",Control Value,[1],62
"CSC1=N[C@@](C)(c2ccccc2)C(=O)N1Nc1ccccc1 [Fenamidone, fenamidone]",Control Value,[1],58
"Cc1ccc(C(C)NC(=O)[C@@H](NC(=O)OC(C)C)C(C)C)cc1 (some centres unmarked) [Iprovalicarb, iprovalicarb]",Control Value,[2],70
"COC(=O)N(OC)c1ccccc1COc1ccn(-c2ccc(Cl)cc2)n1 [Pyraclostrobin, pyraclostrobin]",Control Value,"Table 9 (Example B), treated concentration 5 ppm",62
"CCC(C)(NC(=O)c1cc(Cl)c(C)c(Cl)c1)C(=O)CCl (centres unmarked) [Zoxamide, zoxamide]",Control Value,[1],60
metiram,Control Value,"Table 3, treated concentration 50 ppm, examined after 5 days",56
